Assays:
[1] = tested on: platelets; experiment: Platelets aggregation inhibitory activity (method of Born et al.), ADP-induced, human PRP (Pharmacological Test I); assay type: cell-based, man; conditions: 7.5 μM ADP, 37° C., read-out: IC50 ADP (50% platelets aggregation inhibition)
Protocol: (§1) The platelets aggregation inhibitory activity of each test compound was measured by the method of Born et al. [J. Physiol., London, 162, 67 (1962)], using Platelets Aggregation Tracer manufactured by Nikoh Bioscience Co., Ltd.
(§2) 9 volumes of a blood collected from person was mixed with 1 volume of a 3.8% aqueous sodium citrate solution. Part of the mixture was subjected to centrifugation at 1,100 rpm for 10 minutes to obtain a platelet rich plasma (PRP). The remainder of the mixture was also subjected to centrifugation at 3,000 rpm for 10 minutes to obtain a platelet poor plasma (PPP).
(§3) The number of platelets in the PRP was measured using Coulter Counter manufactured by Coulter Electronics Inc. Then, the PRP was diluted with the PPP so that the number of platelets in the dilution became 300,000, whereby a PRP solution was prepared.
(§4) 200 μl of this PRP solution and 2 ml of a solution containing a test compound at a given concentration were placed in an aggregation measurement cell and heated at 37° C. for 1 minute. Thereto was added 20 μl of adenosine diphosphate (ADP manufactured by Sigma Co.) or a collagen suspension (Collagen Reagent manufactured by Horm, Hormon-Chemie, Gmbh) to induce aggregation of platelets. The resulting mixture in the cell was measured for change of transmittance, after which a platelets aggregation curve was prepared. Incidentaly, the concentration of ADP or collagen was selected so that the final Concentration became 7.5 μM or 20 μg/ml.
(§5) Using the platelets aggregation curve, there was calculated a maximum aggregation rate (MAR) of platelets using the followoing formula: […]
(§6) wherein a represents a transmittance of the PRP obtained in the same manner; c represents a transmittance of the PPP obtained in the same manner; and b represents a transmittance at the maximum change, of the PRP solution containng the test compound and the aggregation inducer.
(§7) A MAR was also calculated as above, for the control containing no test compound.
(§8) Using the above two MARs, there were calculated platelets aggregation inhibitions (%) of each test compound at various concentrations using the following formula.
(§9) Inhibition=[1-(MAR of PRP solution containing test compound)/(MAR of PRP
(§10) solution containing no test compound)]×100
(§11) Using the above obtained platelets aggregation inhibitions (%) of each test compound at various concentrations, there was calculated a concentration (IC50) of each test compound for 50% platelets aggregation inhibition.

[2] = tested on: platelets; experiment: Platelets aggregation inhibitory activity (method of Born et al.), collagen-induced, human PRP (Pharmacological Test I); assay type: cell-based, man; conditions: Homo sapiens, Platelet, 20 μg/ml collagen, 37° C., read-out: IC50 Collagen (50% platelets aggregation inhibition)
Protocol: as §1, §2, §3, §4, §5, §6, §7, §8, §9, §10, §11

| SMILES | IC50 ([1]; Homo sapiens, Platelet) | IC50 [2] | IC50 [1] |
| --- | --- | --- | --- |
| O=C(CN1CCC(O)CC1)N(CCCCOc1ccc2[nH]c(=O)ccc2c1)CC1CCCCCCC1 [Example 21] | 4.2 µM | 3.1 µM | – |
| O=c1ccc2cc(OCCCCN(CCN3CCC(O)CC3)CC3CCCCO3)ccc2[nH]1 (centres unmarked) [Example 24] | 14 µM | 14 µM | – |
| O=c1ccc2cc(OCCCCN(CCN3CCC(O)CC3)C3CCCCC3)ccc2[nH]1 [Example 26] | 15 µM | 14 µM | – |
| O=c1ccc2cc(OCCCCCN(CCN3CCC(O)CC3)Cc3ccccc3)ccc2[nH]1 [Example 29] | 12 µM | 6.3 µM | – |
| Cc1ccc(CN(CCCCCOc2ccc3[nH]c(=O)ccc3c2)CCN2CCC(O)CC2)cc1 [Example 32] | 4.8 µM | 6.1 µM | – |
| N#Cc1ccc(CN(CCCCCOc2ccc3[nH]c(=O)ccc3c2)CCN2CCC(O)CC2)cc1 [Example 33] | 5.6 µM | 9.1 µM | – |
| COc1ccc(CN(CCCCCOc2ccc3[nH]c(=O)ccc3c2)CCN2CCC(O)CC2)cc1OC [Example 35] | 11 µM | 11 µM | – |
| O=c1ccc2cc(OCCCCCN(CCN3CCC(O)CC3)Cc3ccc(Cl)c(Cl)c3)ccc2[nH]1 [Example 36] | 11 µM | 20 µM | – |
| O=c1ccc2cc(OCCCCCN(CCN3CCC(O)CC3)Cc3cccs3)ccc2[nH]1 [Example 40] | 13 µM | 10 µM | – |
| O=C(C1CCCCCCC1)N(CCCCOc1ccc2[nH]c(=O)ccc2c1)CCN1CCC(O)CC1 [Example 41] | 8.7 µM | 11 µM | – |
| O=C(c1ccccc1)N(CCCCOc1ccc2[nH]c(=O)ccc2c1)CCN1CCC(O)CC1 [Example 42] | 20 µM | 13 µM | – |
| O=c1ccc2cc(OCCCCN(CCN3CCOCC3)CC3CCCCCCC3)ccc2[nH]1 [Example 45] | 22 µM | 25 µM | – |
| CN(C)C1CCN(CCN(CCCCOc2ccc3[nH]c(=O)ccc3c2)CC2CCCCCCC2)CC1 [Example 46] | 20 µM | 20 µM | – |
| O=c1ccc2cc(OCCCCN(CCN3CCC4(CC3)OCCO4)CC3CCCCCCC3)ccc2[nH]1 [Example 47] | 25 µM | 29 µM | – |
| O=c1ccc2cc(OCCCCN(CCN3CCC[C@H]3CO)CC3CCCCCCC3)ccc2[nH]1 [Example 49] | 6.9 µM | 22 µM | – |
| O=C1CC[C@@H](CO)N1CCN(CCCCCOc1ccc2[nH]c(=O)ccc2c1)Cc1ccccc1 [Example 55] | 3.7 µM | 2.6 µM | – |
| O=c1ccc2cc(OCCCCCN(CCN3CCCS3(=O)=O)Cc3ccccc3)ccc2[nH]1 [Example 56] | 14 µM | 7.7 µM | – |
| O=c1ccc2cc(OCCCCCN(CCN3CCN(CCO)CC3)Cc3ccccc3)ccc2[nH]1 [Example 57] | 18 µM | 17 µM | – |
| O=c1ccc2cc(OCCCCCN(CCN(CCO)CCO)Cc3ccccc3)ccc2[nH]1 [Example 58] | 3.8 µM | 4.8 µM | – |
| O=c1ccc2cc(OCCCCN(CCNCCO)CC3CCCCCCC3)ccc2[nH]1 [Example 60] | 15 µM | 5.3 µM | – |
| CCN(CC)C(=O)CN(CCCCOc1ccc2[nH]c(=O)ccc2c1)CC1CCCCCCC1 [Example 65] | 11 µM | 14 µM | – |
| O=c1ccc2cc(OCCCCCN(CCO)Cc3ccccc3)ccc2[nH]1 [Example 67] | 4.5 µM | 2.9 µM | – |
| O=c1ccc2cc(OCCCCCN(CCn3ccnc3)Cc3ccccc3)ccc2[nH]1 [Example 69] | 15 µM | 9.5 µM | – |
| CCN1C[C@H](O)C[C@H]1CN(CCCCOc1ccc2[nH]c(=O)ccc2c1)CC1CCCCCCC1 [Example 71] | 18 µM | 7.4 µM | – |
| O=C([C@@H]1C[C@@H](O)CN1CCCCOc1ccc2[nH]c(=O)ccc2c1)N1CCCCC1 [Example 74] | 17 µM | 20 µM | – |
| CN(C1CCCCC1)S(=O)(=O)CCCCOc1ccc2[nH]c(=O)ccc2c1 [Example 77] | 2.1 µM | 4.9 µM | – |
| O=c1ccc2cc(OCCCS(=O)(=O)N(CCN3CCC(O)CC3)CC3CCCCCCC3)ccc2[nH]1 [Example 78] | 1.4 µM | 0.38 µM | – |
| O=c1ccc2cc(OCCCCCS(=O)(=O)N(CCN3CCC(O)CC3)CC3CCCCCCC3)ccc2[nH]1 [Example 80] | 13 µM | 15 µM | – |

| SMILES | IC50 ([1]; Homo sapiens, Platelet) | IC50 [2] | IC50 [1] |
| --- | --- | --- | --- |
| O=C(CN(CC1CCCCCCC1)S(=O)(=O)CCCOc1ccc2[nH]c(=O)ccc2c1)N1CCC(O)CC1 [Example 81] | 6.1 µM | 11 µM | – |
| O=c1ccc2cc(OCCCS(=O)(=O)N(CCN3CCC(O)CC3)CC3CCCCC3)ccc2[nH]1 [Example 82] | 4.5 µM | 3.8 µM | – |
| O=c1ccc2cc(OCCCS(=O)(=O)N(CCN3CCC(O)CC3)CC3CCCCO3)ccc2[nH]1 (centres unmarked) [Example 84] | 9.5 µM | 9.1 µM | – |
| O=S(=O)(CCCOc1ccc2[nH]c(=S)ccc2c1)N(CCN1CCC(O)CC1)c1ccccc1 [Example 87] | 4.7 µM | – | – |
| O=c1ccc2cc(OCCCCS(=O)(=O)N(CCN3CCC(O)CC3)C3CCCCCCC3)ccc2[nH]1 [Example 88] | 2.8 µM | 1.4 µM | – |
| O=c1ccc2cc(OCCCCS(=O)(=O)N(CCN3CCC(O)CC3)Cc3cccs3)ccc2[nH]1 [Example 90] | 5.3 µM | 5.4 µM | – |
| Cc1ccc(CN(CCN2CCC(O)CC2)S(=O)(=O)CCCCOc2ccc3[nH]c(=O)ccc3c2)cc1 [Example 94] | 1.4 µM | 2.3 µM | – |
| O=c1ccc2cc(OCCCCS(=O)(=O)N(CCN3CCC(O)CC3)Cc3ccc(Cl)c(Cl)c3)ccc2[nH]1 [Example 95] | 10 µM | 7.1 µM | – |
| COc1ccc(CN(CCN2CCC(O)CC2)S(=O)(=O)CCCCOc2ccc3[nH]c(=O)ccc3c2)cc1OC [Example 96] | 8.7 µM | 6.5 µM | – |
| O=c1ccc2cc(OCCCS(=O)(=O)N(CCN3CCCCC3)CC3CCCCCCC3)ccc2[nH]1 [Example 97] | 14 µM | 18 µM | – |
| O=c1ccc2cc(OCCCS(=O)(=O)N(CCN3CCOCC3)CC3CCCCCCC3)ccc2[nH]1 [Example 98] | 9.1 µM | 12 µM | – |
| O=c1ccc2cc(OCCCS(=O)(=O)N(CCN3CCN(CCO)CC3)CC3CCCCCCC3)ccc2[nH]1 [Example 99] | 2.9 µM | 3.5 µM | – |
| CN(C)C1CCN(CCN(CC2CCCCCCC2)S(=O)(=O)CCCOc2ccc3[nH]c(=O)ccc3c2)CC1 [Example 100] | 13 µM | 6.5 µM | – |
| O=c1ccc2cc(OCCCS(=O)(=O)N(CCN3CCC4(CC3)OCCO4)CC3CCCCCCC3)ccc2[nH]1 [Example 101] | 2.9 µM | 3.2 µM | – |
| O=c1ccc2cc(OCCCS(=O)(=O)N(CCN3C[C@H](O)[C@@H](O)C3)CC3CCCCCCC3)ccc2[nH]1 [Example 102] | 9.5 µM | 15 µM | – |
| O=c1ccc2cc(OCCCS(=O)(=O)N(CCN3CCC[C@H]3CO)CC3CCCCCCC3)ccc2[nH]1 [Example 103] | 2.6 µM | 3.2 µM | – |
| O=c1ccc2cc(OCCCCS(=O)(=O)N(CCN3CCC[C@H]3CO)CC3CCCCC3)ccc2[nH]1 [Example 104] | 3.5 µM | 2.3 µM | – |
| O=c1ccc2cc(OCCCCS(=O)(=O)N(CCN3CCCS3(=O)=O)Cc3ccccc3)ccc2[nH]1 [Example 105] | 2.2 µM | 1.1 µM | – |
| CCN1C[C@H](O)C[C@H]1CN(CC1CCCCC1)S(=O)(=O)CCCCOc1ccc2[nH]c(=O)ccc2c1 [Example 106] | 1.4 µM | 0.9 µM | – |
| CCN(CC)CC(CO)N(CC1CCCCCCC1)S(=O)(=O)CCCCOc1ccc2[nH]c(=O)ccc2c1 (centres unmarked) [Example 107] | 3.4 µM | 3.2 µM | – |
| O=c1ccc2cc(OCCCCS(=O)(=O)N(CCNCCO)CC3CCCCCCC3)ccc2[nH]1 [Example 108] | 2.9 µM | 2 µM | – |
| CCN(CC)CCN(CC1CCCCCC1)S(=O)(=O)CCCOc1ccc2[nH]c(=O)ccc2c1 [Example 110] | 4.7 µM | 8.3 µM | – |
| CC(=O)NCCN(CC1CCCCCCC1)S(=O)(=O)CCCOc1ccc2[nH]c(=O)ccc2c1 [Example 111] | 2.2 µM | 2.9 µM | – |
| CC(=O)NCCN(CC1CCCCCCC1)S(=O)(=O)CCCCOc1ccc2[nH]c(=O)ccc2c1 [Example 112] | 0.83 µM | 0.69 µM | – |
| CCOC(=O)CN(CC1CCCCCCC1)S(=O)(=O)CCCOc1ccc2[nH]c(=O)ccc2c1 [Example 114] | 6.5 µM | 4 µM | – |
| CN(C(=O)NCCCOc1ccc2[nH]c(=O)ccc2c1)C1CCCCC1 [Example 133] | 2.9 µM | – | – |
| CN(C(=S)CCCOc1ccc2[nH]c(=O)ccc2c1)C1CCCCC1 [Example 135] | – | – | 22 µM |
